Source: patent US11117888B2, “Irreversible inhibitors of pyruvate kinase M2 and the use thereof” (China Medical University, priority 2020, dated 2021)

Assays:
Type in all cases: cell-based, human
lung cancer cell lines = assay: MTT cell viability assay, panel of lung cancer cell lines
Description: Cell lines, cell culture, biochemical reagents, and antibodies. MiaPaCa-2, AsPC-1, and Panc-1 human pancreatic cancer cells, MCF-7 and MDA-MB-231 breast cancer cells, SCC4 and SCC2059 oral cancer cells, PC-3 and LNCaP prostate cancer cells, H157, H460, H1975, PC-9 and H1650 lung cancer cells were obtained from the American Type Culture Collection (ATCC, Manassas, Va.). All these cells were maintained in recommended growth medium (RPMI 1640 or DMEM) supplemented with 10% fetal bovine serum (FBS) (Invitrogen, Carlsbad, Calif., USA) and antibiotics at 37° C. in a humidified incubator containing 5% CO2. For SILAC experiments, PC-9 cells were grown in SILAC DMEM medium (Thermo Fisher) supplemented with 10% dialyzed FBS and 100 μg/mL each of unlabeled L-arginine and L-lysine (light medium) or ^13C/^15N stable isotope-labeled L-arginine and L-lysine (heavy medium). […]
Cell viability assays. Drug effects on cell viability was assessed by 3-(4,5-dimethylthiazol-2-yl)-2,5-diphenyltetrazolium bromide ([…]) assays. […] The medium was then removed from each well and replaced with DMSO to dissolve the reduced MTT dye for subsequent colorimetric measurement of absorbance at 560 nm. Cell viabilities are expressed as percentages of viable cells relative to the corresponding vehicle-treated control group.

PC-9 cells = assay: ABPP-SILAC proteomic target identification; conditions: 1 μM, 1 hour, LC-MS/MS
Method: As part of our effort to identify compound 1's target(s), we embarked on the use of compound 2 as an ABPP probe to conduct SILAC-based proteomic analysis. […] In this experiment, PC-9 cells were grown in cultural medium supplemented with unlabeled L-arginine and L-lysine (light medium) versus ^13C/^15N stable isotope-labeled L-arginine and L-lysine (heavy medium), generating two populations of cells (light versus heavy cells). Heavy PC-9 cells were then exposed to the ABPP (1 μM) for 1 hour to allow intracellular labelling of target proteins, while light cells were treated with DMSO vehicle under the same condition. […] These peptide mixtures were analyzed by liquid chromatography-tandem mass spectrometry (LC-MS/MS), and the resulting data were searched against various primary sequence databases by using the Mascot search engine. […]
SILAC analysis and click chemistry. […] The supernatant was transferred to a 1.5 mL microfuge tube, and the protein concentration was determined by the BCA protein assay (Thermo Fisher Scientific) and then normalized to 1 mg/mL. […]
Proteomic data analysis. Putative target proteins of compound 1 and protein-protein interaction network were identified and analyzed, respectively, through a web-based search of the STRING database (https://string-db.org/). […]

[1] = system: pyruvate kinase activity in PC-9 cells; assay: Pyruvate kinase activity assay in PC-9 cells; conditions: 0.25 μM, 6 hours, relative to vehicle control
Method: Pyruvate kinase activity assays. PC-9 cells were seeded into 6 cm dishes at a concentration of 5×10^5 cells/mL. After 24 hours, cells were treated with 0.25 μM compound 1 or DMSO for 6 hours. The pyruvate kinase activity of compound 1-treated PC-9 and vehicle control cells was measured by using a commercial colorimetric assay kit from BioVision (Milpitas, Calif., USA) according to the manufacturer's protocol. In addition, to verify the specificity of compound 1 toward PKM2 versus PKM1, the inhibition of the kinase activity of recombinant PKM1 (SRP0415, Sigma-Aldrich) and recombinant PKM2 (SAE0021, Sigma-Aldrich) by compound 1 was conducted using the aforementioned assay kit.

[2] = system: PKM2, EGFR, Stat3, β-catenin in PC-9 cells; assay: Immunoblot analysis of oncogenic effectors in PC-9 cells; conditions: Western blot, 24 hours
Method: Immunoblot analysis. PC-9 cells were seeded into 6 cm dish at a concentration of 5×10^5 cells/mL. After 24 hours, cells were treated with 0-1 μM compound 1 or DMSO alone for 24 hours. The cells were harvested at 24 hours, and protein extractions were carried out. The protein lysate was subjected to 10% SDS-PAGE and transferred to a nitrocellulose membrane (GE Healthcare Life Sciences). Protein expression was analyzed by Western blotting using primary antibodies against PKM2, EGFR, p-STAT3, STAT3, p-β-catenin (Cell Signaling Technology), β-catenin (Santa Cruz Biotechnology) and β-actin (Sigma-Aldrich), followed by incubation with horseradish peroxidase-conjugated secondary (Jackson ImmunoResearch Laboratories). Specific proteins were detected by chemiluminescence using ECL Plus Western Blotting Detection Reagents (GE Healthcare Biosciences).

Structure (SMILES) | antiproliferative effect in lung cancer cell lines (lung cancer cell lines) | protein targets labelled by ABPP probe (PC-9 cells) | pyruvate kinase activity in cells [1] | expression and/or phosphorylation of PKM2, EGFR, Stat3, β-catenin [2]
C#CCOc1ccc(-c2ccc(-c3cc(CCC(=O)NC)nn3-c3ccc(NC(=O)C#C)cc3)cc2)cc1 [compound 2, N-(4-(3-(3-(Methylamino)-3-oxopropyl)-5-(4′-(prop-2-yn-1-yloxy)-[1,1′-biphenyl]-4-yl)-1H-pyrazol-1-yl)phenyl)propiolamide] | pattern of growth inhibition similar to that of compound 1 | the protein with the highest matching score was the 58 kDa PKM2 | – | –
C#CC(=O)Nc1ccc(-n2nc(CCc3nnc(C)o3)cc2-c2ccc(-c3ccc(C(F)(F)F)cc3)cc2)cc1 [compound 3] | high antiproliferative potencies | – | equipotent in suppressing PKM2 kinase activity relative to compound 1 | high efficacy in suppressing the phosphorylation/expression of various oncogenic biomarkers
